Laboratory results taken from patent US9328131B2, “Benzimidazolium compounds” (Boehringer Ingelheim International GmbH, priority 2013, dated 2016).

Assays:
Mouse kidney M-1 cells = assay: Ussing Chamber assay: inhibition of amiloride sensitive short circuit current; assay type: cell-based; conditions: compound in the apical solution, 37° C.
Procedure: Ussing Chamber: Mouse kidney M-1 cells were cultivated in DMEM containing 5% FCS and 5 μM dexamethasone for 10 to 12 days on polyester transwell filters. Filters were inserted into a teflon-coated well-plate which fit into the ussing chamber system. Prior to measurement the medium of M−1 cells was replaced with Caco-2 transport buffer (Invitrogen, Germany). During measurements, the Ussing chamber temperature was kept at 37° C. Short circuit currents (l_sc) were measured in the voltage-clamp mode with the software package Lab View for data acquisition and analysis. The transepithelial electrical resistance (TEER) was determined by the application of voltage steps of ±5 mV every 5 sec. Compounds were administered at a final concentration of 3 μM or at increasing concentrations (1-3-10 μM) to the apical solution. At the end of each experiment the amiloride sensitive l_SC was measured by adding 3 μM amiloride to the apical compartment. Results are expressed as inhibition in percent of the amiloride effect or as IC50.
With the example compounds given above, the following IC50 values were determined in the Ussing Chamber assay: […]

[1] = Permeability in CALU-3 cells; assay type: in vitro ADME; conditions: human, CALU-3 monolayers, pH 7.4, 37° C., 10 μM compound
Procedure: Permeability in CALU-3 cells:
Permeability measurements across polarized, confluent CALU-3 cell monolayers grown on permeable filter supports are used to provide information on the potential of a compound to pass the lung epithelium. Apparent permeability coefficients (Papp) of the compounds across the CALU-3 cell monolayers are measured (pH 7.4, 37° C.) in apical-to-basal (AB) and basal-to-apical (BA) transport direction.
CALU-3 cells (1−2×10^5 cells/1 cm^2 area) are seeded on filter inserts (Costar transwell polycarbonate filters, 0.4 μm pore size) and cultured (DMEM) for 10-12 days until tight monolayers are formed. Compounds of interest are dissolved in appropriate solvent (DMSO, 10 mM stock solution). Stock solutions are diluted with HTP-4 buffer (128.13 mM NaCl, 5.36 mM KCl, 1 mM MgSO4, 1.8 mM CaCl2, 4.17 mM NaHCO3, 1.19 mM Na2HPO4×7H2O, 0.41 mM NaH2PO4×H2O, 15 mM HEPES, 20 mM glucose, 0.25% BSA, pH 7.4) to prepare the transport solutions (10 μM compound, final DMSO<=0.5%). The transport solution (TL) is applied to the apical or basolateral donor side for measuring A-B or B-A permeability (3 filter replicates), respectively. The receiver side contains the same buffer as the donor side. After 30 min of accommodation, samples are collected at the start t0=0 min and at the end of the experiment tn=90 min from the donor and at 0, 30, 60, and 90 min also from the receiver chamber. Volume removed is replenished by HTP-4 buffer. The compound concentration in the samples is measured by HPLC-MS/MS or scintillation counting. The permeability coefficient (Papp) and efflux ratio are calculated according to: Papp[cm/s]=(concentration receiver[nM]*volume receiver[mL]/time interval[sec])*(1/filter area)*(1/donor concentration[nM])
With example compounds given above, the following permeability values were determined in the CALU-3 cells assay: […]

Structure (SMILES) | IC50 (Mouse kidney M-1 cells) [nM] | Papp A→B at 90 min, 10 μM ([1]; apical-to-basal) [×10⁻⁶ cm/s] | Papp B→A at 90 min, 10 μM ([1]; basal-to-apical) [×10⁻⁶ cm/s] | Papp A→B ([1]; apical-to-basal) [×10⁻⁶ cm/s] | Papp B→A ([1]; basal-to-apical) [×10⁻⁶ cm/s]
CCOP(=O)(OCC)c1ccc(CCC[n+]2c(CNC(=O)c3nc(Cl)c(N)nc3N)n(CC)c3cc(OC)ccc32)cc1.O=C([O-])C(F)(F)F [Example 1.1] | 2 | 0.16 | 0.28 | – | –
CCn1c(CNC(=O)c2nc(Br)c(N)nc2N)[n+](CCOCCOCCO)c2ccc(OC)cc21.O=C([O-])C(F)(F)F [Example 2.1] | 1 | 0.23 | 0.4 | – | –
CC[n+]1c(CNC(=O)c2nc(Cl)c(N)nc2N)n(C2CCN(C(C)=O)CC2)c2ccccc21.O=C[O-] [Example 3.1] | 5 | 1.7 | 0.45 | – | –
CC[n+]1c(CNC(=O)c2nc(Cl)c(N)nc2N)n(CCCP(=O)(O)O)c2ccc(OC)cc21.O=C([O-])C(F)(F)F [Example 4.1] | 56 | < 0.34 | 0.08 | – | –
CCOP(=O)([O-])CCCn1c(CNC(=O)c2nc(Cl)c(N)nc2N)[n+](CC)c2cc(OC)ccc21 [Example 5.1] | 29 | – | – | 0.17 | 0.05
